Experimental data as given in patent publication US9855259B2, “Processes of making and crystalline forms of a MDM2 inhibitor” (AMGEN INC., priority 2013, dated 2018).
Structures can show the parent of a compound that is named as a salt.

Assay: room-temperature solubility in toluene
Format: physicochemical
Details: organic solvent or mixture, 1-naphthalene sulfonate counterion

With `C=CC[C@@]1(C)C[C@H](c2cccc(Cl)c2)[C@@H](c2ccc(Cl)cc2)[N+]2=C1OC[C@@H]2C(C)C` [oxoiminium salt, (3S,5S,6R,8S)-8-Allyl-6-(3-chlorophenyl)-5-(4-chlorophenyl)-3-isopropyl-8-methyl-2,3,5,6,7,8-hexahydrooxazolo[3,2-a]pyridin-4-ium naphthalene-1-sulfonate] the solubility was < 10 mg/mL.
